What is called IC50 is the point on the concentration scale where inhibition reaches its midpoint.

The target in one test is T1, rNav1.5a (Rattus norvegicus, UniProt P15389).
T1 construct: the Sodium Channel Expressed Endogenously in HiB5 Cells (rNav1.5a); endogenous in cells; host or cells: HiB5 (rat hippocampal stem cell line)
Kind of test: Whole-cell recording of peak sodium current, inhibition by Lamotrigine, sodium channel expressed endogenously in HiB5 cells (rNav1.5a). It counts as cell-based. The method, then: (§1) Comparison of the Inhibitory Effect of Lamotrigine on the Classical Brain Type rNav1.2a and the Sodium Channel Expressed Endogenously in HiB5 Cells (rNav1.5a)
(§2) Experiments were performed as whole-cell recordings in physiological saline with stimulation of the sodium channel every 5 second by stepping from a holding potential (e.g. −90 mV) to −10 mV and monitoration of the peak current as a function of the concentration of Lamotrigine added to the recording chamber.

The target of the next test is rNav1.2a (Rattus norvegicus, UniProt P04775). Kind of test: Whole-cell recording of peak sodium current, inhibition by Lamotrigine, classical brain type rNav1.2a. Particulars: physiological saline, stimulation every 5 second, step from holding potential (e.g. −90 mV) to −10 mV. It counts as cell-based. On the procedure: as §1, §2

T1 sequence (P15389 1-1966 isoform P15389-2): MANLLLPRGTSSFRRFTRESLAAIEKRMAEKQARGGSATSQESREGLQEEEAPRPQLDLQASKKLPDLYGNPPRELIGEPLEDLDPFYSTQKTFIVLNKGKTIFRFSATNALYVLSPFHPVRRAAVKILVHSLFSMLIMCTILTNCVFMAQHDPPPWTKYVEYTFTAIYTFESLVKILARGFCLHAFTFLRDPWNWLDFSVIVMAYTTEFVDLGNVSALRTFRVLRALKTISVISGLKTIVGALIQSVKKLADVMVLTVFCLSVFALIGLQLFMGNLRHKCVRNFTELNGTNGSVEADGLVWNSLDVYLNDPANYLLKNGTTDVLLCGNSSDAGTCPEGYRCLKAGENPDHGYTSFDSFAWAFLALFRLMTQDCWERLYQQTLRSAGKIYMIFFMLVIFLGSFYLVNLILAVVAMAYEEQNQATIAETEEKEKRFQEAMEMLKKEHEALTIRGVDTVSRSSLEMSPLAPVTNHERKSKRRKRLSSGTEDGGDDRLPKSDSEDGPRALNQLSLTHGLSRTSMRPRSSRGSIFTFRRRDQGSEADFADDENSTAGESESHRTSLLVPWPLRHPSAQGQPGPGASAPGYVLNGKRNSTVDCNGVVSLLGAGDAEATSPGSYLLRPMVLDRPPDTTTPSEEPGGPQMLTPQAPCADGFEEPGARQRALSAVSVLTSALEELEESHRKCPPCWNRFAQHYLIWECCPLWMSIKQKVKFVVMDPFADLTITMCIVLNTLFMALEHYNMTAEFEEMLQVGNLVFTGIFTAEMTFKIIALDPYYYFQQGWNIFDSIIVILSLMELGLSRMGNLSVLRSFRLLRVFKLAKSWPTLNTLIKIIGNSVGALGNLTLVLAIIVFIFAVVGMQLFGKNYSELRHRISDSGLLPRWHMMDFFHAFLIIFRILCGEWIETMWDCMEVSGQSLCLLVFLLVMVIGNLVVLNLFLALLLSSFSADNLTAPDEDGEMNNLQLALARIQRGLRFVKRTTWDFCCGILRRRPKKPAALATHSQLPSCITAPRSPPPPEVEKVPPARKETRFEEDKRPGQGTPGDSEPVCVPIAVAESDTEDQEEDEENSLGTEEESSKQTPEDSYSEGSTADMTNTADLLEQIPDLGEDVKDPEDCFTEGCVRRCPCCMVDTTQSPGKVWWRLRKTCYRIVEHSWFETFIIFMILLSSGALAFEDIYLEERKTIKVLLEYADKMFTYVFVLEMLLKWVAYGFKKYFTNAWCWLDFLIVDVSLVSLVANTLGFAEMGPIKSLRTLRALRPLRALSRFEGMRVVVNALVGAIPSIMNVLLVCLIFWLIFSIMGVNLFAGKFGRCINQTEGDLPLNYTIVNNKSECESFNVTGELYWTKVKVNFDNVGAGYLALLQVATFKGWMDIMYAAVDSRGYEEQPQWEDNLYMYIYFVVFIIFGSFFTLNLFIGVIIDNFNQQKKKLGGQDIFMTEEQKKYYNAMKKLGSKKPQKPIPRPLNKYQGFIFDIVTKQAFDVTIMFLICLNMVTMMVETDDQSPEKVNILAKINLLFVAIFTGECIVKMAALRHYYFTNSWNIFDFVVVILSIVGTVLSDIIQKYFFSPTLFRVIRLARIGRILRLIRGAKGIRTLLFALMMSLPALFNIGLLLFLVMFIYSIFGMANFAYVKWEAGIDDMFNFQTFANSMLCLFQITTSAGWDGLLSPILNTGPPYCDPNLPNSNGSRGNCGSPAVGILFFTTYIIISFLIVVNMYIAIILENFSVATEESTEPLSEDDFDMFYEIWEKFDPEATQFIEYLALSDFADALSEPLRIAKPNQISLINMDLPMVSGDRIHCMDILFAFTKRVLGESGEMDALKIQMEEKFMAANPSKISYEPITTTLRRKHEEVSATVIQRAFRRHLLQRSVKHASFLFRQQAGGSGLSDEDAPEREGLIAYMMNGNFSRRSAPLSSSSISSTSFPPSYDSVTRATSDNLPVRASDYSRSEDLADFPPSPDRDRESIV

Regarding `Nc1nnc(-c2cccc(Cl)c2Cl)c(N)n1` [Lamotrigine], the IC50 against rNav1.5a (HiB5 cells, whole-cell recording, physiological saline, stimulation every 5 second, step from holding potential (e.g. −90 mV) to −10 mV) is 20 µM; against rNav1.2a, 500 µM. In addition, on rNav1.5a (comparison with BIIA (rNav1.2a), see Example 2), the “Potency on rNav1.5a relative to classical brain subtype BIIA” value is given as “more potently”.

The record behind these values is patent US7423121B2, “Sodium channel rNav1.5a” (Neurosearch A/S, priority 2000, dated 2008).
